Test results: US9884843B2 (Peloton Therapeutics, Inc., priority 2013, dated 2018)
“Also recorded” adds a separate entry of the source. Where two headings read alike, the source gives them in different places. Values belong to the compound of their own block, whether it stands above or below them.

What was measured:
[1] = system: renal cell carcinoma 786-O xenograft; assay: In vivo efficacy study, 786-O xenograft; design: species or system SCID/Biege mice
[2] = system: HIF-2α HIS TAG-PASB Domain; assay: biochemical; assay type: binding; conditions: displacement of Compound 120 probe; mean; read-out: Mean SPA IC50
Outline: (§1)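 Scintillation proximity assay with His-tagged protein bound to SPA beads; test compounds in DMSO displace a tritium-labelled probe ligand, lowering bead light emission. Percent inhibition calculated against high and low controls, with IC50 fitted from it.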

[3] = system: 786-O-Hif-Luc cells; assay: Luciferase Assay (HIF responsive element reporter); assay type: cell-based; conditions: 786-O-Hif-Luc cells, about 24 hours, read-out: Mean Luciferease EC50
Description: A pool of infected cells were then selected against 2 μg/mL of puromycin (P8833, Sigma) for 10 days followed by limited dilution to select single clones.
Each concentration was tested in triplicate. After about 24 hours, luciferase activity was determined using ONE-Glo Luciferase Assay Reagent (E6110, Promega) following the manufacturer's recommended procedure. EC50 were calculated by using Dotmatics software.

[4] = system: HIF-2α and HIF-2α-regulated genes in 786-O xenograft; assay: In vivo PK/PD study: tumor mRNA levels by qRT-PCR; design: species or system SCID/Biege mice; conditions: 786-O xenograft mice, 10 mg/kg oral gavage three times at 12 hour intervals, 12 hours post last dose
Description: (§2) About 5×10^6 renal cell carcinoma 786-O tumor cells (ATCC® CRL-1932™, VHL and HIF-1α null cell line) in PBS and Matrigel (1:1 in volume) were injected subcutaneously in the right flanks of SCID/Biege mice at 6-7 weeks of age for xenograft development. When the xenografts reached about 450 mm^3 in size, the tumor-bearing mice were randomly divided into two groups (4 mice in each group). […] Animals were sacrificed at 12 hours post last dose. Tumors and plasma were collected from each animal. Total RNA was extracted from the tumors. The mRNA levels of HIF-2α and its respective target genes were determined by qRT-PCR.

[5] = system: human VEGFA; assay: In vivo PK/PD study: plasma human VEGFA by ELISA; design: species or system SCID/Biege mice; conditions: 786-O tumor-bearing mice, 10 mg/kg oral gavage three times at 12 hour intervals
Description: as §2
The plasma level of human VEGFA was determined by ELISA assay.

[6] = system: VEGF in culture medium of 786-O cells; assay: VEGF ELISA Assay; assay type: cell-based
Description: Four hours later, serial dilutions of 10× compound stocks were made in growth medium from 500×DMSO stocks, and 20 μL of those 10× stocks were added to each well to make final concentrations as follows (μM): 20, 6.7, 2.2, 0.74, 0.25, 0.082, 0.027, 0.009, 0.003, 0.001, 0. Each concentration had duplicated wells. About twenty hours later, the growth medium was removed by suction and each well was supplied with 180 μL of growth medium. About 20 μl freshly-made 10× compound stocks were added to each well. […] The EC50 was calculated by GraphPad Prism using the dose-response-inhibition (four parameter) equation. The cell seeded plate was then subjected to CellTiter-Glo luminescence cell viability assay (Promega) by adding about 50 μL of Celltiter Glo reagent into each well and shaking the plate for 8 minutes at 550 rpm (Thermomixer R, Eppendorf). The luminescence signals were read in a plate reader (3 second delay, 0.5 second/well integration time, Synergy 2 multi Detection Microplate reader) immediately.

[7] = molecular target: HIF-2α HIS TAG-PASB Domain (Homo sapiens, UniProt Q99814); assay: biochemical; assay type: binding; conditions: displacement of Compound 120 probe; mean; read-out: Mean SPA IC50
HIF-2α HIS TAG-PASB Domain, sequence (Q99814 whole entry, looked up, the tested form may be a part): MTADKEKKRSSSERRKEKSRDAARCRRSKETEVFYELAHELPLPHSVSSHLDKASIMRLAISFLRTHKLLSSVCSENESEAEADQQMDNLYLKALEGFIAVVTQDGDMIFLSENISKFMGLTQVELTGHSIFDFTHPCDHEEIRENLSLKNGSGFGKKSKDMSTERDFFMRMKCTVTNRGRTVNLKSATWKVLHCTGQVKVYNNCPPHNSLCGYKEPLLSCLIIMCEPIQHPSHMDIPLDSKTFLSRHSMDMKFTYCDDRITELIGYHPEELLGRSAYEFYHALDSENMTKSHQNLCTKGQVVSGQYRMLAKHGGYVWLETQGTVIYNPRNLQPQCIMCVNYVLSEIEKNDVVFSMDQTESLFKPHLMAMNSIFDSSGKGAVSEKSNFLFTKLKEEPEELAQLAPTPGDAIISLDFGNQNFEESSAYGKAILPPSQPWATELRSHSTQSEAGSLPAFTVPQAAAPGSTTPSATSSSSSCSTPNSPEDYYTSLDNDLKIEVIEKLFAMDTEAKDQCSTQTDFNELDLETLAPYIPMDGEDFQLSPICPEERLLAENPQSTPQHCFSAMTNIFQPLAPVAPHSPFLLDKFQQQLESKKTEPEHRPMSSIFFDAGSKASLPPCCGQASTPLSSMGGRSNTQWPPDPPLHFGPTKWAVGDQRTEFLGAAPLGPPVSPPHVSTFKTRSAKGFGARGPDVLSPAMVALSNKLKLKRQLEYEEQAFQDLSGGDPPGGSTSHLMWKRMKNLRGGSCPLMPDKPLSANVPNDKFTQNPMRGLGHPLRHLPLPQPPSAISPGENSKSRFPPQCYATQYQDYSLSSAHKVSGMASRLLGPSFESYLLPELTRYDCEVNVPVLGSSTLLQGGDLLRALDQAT
Outline: as §1

SMILES: N#Cc1cc(F)cc(Oc2ccc3c(c2C(F)F)[C@@H](O)C(F)(F)S3(=O)=O)c1 [Compound 3, (R)-3-((4-(Difluoromethyl)-2,2-difluoro-3-hydroxy-1,1-dioxido-2,3-dihydrobenzo[b]thiophen-5-yl)oxy)-5-fluorobenzonitrile]
- Effect on tumor size ([1]; 10 mg/kg b.i.d. oral gavage for 21 days, versus vehicle): tumor size reduction and regression; also recorded: statistically significant reduction of tumor size
- Tumor size Mean ± SEM ([1]; 10 mg/kg b.i.d. oral gavage, after 21 days of dosing): 57 ± 5.6 mm^3
- EC50 [3]: 7 nM
- Tumor mRNA for HIF-1α and HIF-1α specific target genes (PGK1 and PDK1) [4]: no significant effect; also recorded: no significant changes
- Tumor mRNA for HIF-2α and HIF-2α specific target genes (PAI-1 and CCND1) [4]: reduced; also recorded: significant reduction
- Plasma level of human VEGFA [5]: reduced; also recorded: undetectable level

SMILES: N#Cc1c(Oc2cc(F)cc(Cl)c2)ccc2c1C(O)CS2(=O)=O (stereo not drawn) [Compound 7, 5-(3-chloro-5-fluorophenoxy)-3-hydroxy-2,3-dihydrobenzo[b]thiophene-4-carbonitrile 1,1-dioxide]
- EC50 ([6]; Homo sapiens, 786-0): 330 nM
- EC50 [3]: 450 nM

SMILES: O=S1(=O)c2ccc(Oc3cc(F)cc(Cl)c3)c(Br)c2C(O)C1(F)F (stereo not drawn) [Compound 9, 4-Bromo-5-(3-chloro-5-fluorophenoxy)-2,2-difluoro-3-hydroxy-2,3-dihydrobenzo[b]thiophene 1,1-dioxide]
- IC50 [7]: 2 nM
- EC50 ([6]; Homo sapiens, 786-0): 65 nM
- EC50 [3]: 50 nM

SMILES: [2H][C@@]1(O)c2c(ccc(Oc3cc(F)cc(C#N)c3)c2C(F)F)S(=O)(=O)C1(F)F [Compound 43, (R)-3-((4-(Difluoromethyl)-2,2-difluoro-3-hydroxy-1,1-dioxido-2,3-dihydrobenzo[b]thiophen-5-yl-3-d)oxy)-5-fluorobenzonitrile]
- EC50 [3]: 6 nM

- EC50 [6]: 67 nM
- EC50 [3]: 39 nM
SMILES: N=S1(=O)c2ccc(Oc3cc(F)cc(F)c3)c(C(F)F)c2C(O)C1(F)F (stereo not drawn) [Compound 53, 4-(difluoromethyl)-5-(3,5-difluorophenoxy)-2,2-difluoro-3-hydroxy-1-imino-2,3-dihydro-1H-1λ^4-benzo[b]thiophene 1-oxide]

- IC50 [7]: 120 nM
- EC50 ([6]; Homo sapiens, 786-0): 330 nM
- EC50 ([3]; 24 h): 95 nM
SMILES: N#Cc1cncc(Oc2ccc3c(c2Br)[C@@H](O)C(F)(F)S3(=O)=O)c1 [Compound 78, (R)-5-((4-Bromo-2,2-difluoro-3-hydroxy-1,1-dioxido-2,3-dihydrobenzo[b]thiophen-5-yl)oxy)nicotinonitrile]

- EC50 ([6]; Homo sapiens, 786-0): 31 nM
- EC50 ([3]; 24 h): 18 nM
SMILES: C[C@@]1(O)c2c(ccc(Oc3cc(F)cc(C#N)c3)c2C#N)S(=O)(=O)C1(F)F [Compound 112, (R)-5-(3-cyano-5-fluorophenoxy)-2,2-difluoro-3-hydroxy-3-methyl-2,3-dihydrobenzo[b]thiophene-4-carbonitrile 1,1-dioxide]
